Measured values: patent US9169254B2, “Spiroimidazolone derivative” (Chugai Seiyaku Kabushiki Kaisha, priority 2009, dated 2015)

These compounds were tested against T1, human PTH1 receptor (Homo sapiens, UniProt Q03431) (assay: In vitro cAMP signal activity in HKRK-B7 cells (LLC-PK1 cells overexpressing the human PTH1 receptor)). Conditions: 0.1 µM.
T1 sequence (Q03431 27-593): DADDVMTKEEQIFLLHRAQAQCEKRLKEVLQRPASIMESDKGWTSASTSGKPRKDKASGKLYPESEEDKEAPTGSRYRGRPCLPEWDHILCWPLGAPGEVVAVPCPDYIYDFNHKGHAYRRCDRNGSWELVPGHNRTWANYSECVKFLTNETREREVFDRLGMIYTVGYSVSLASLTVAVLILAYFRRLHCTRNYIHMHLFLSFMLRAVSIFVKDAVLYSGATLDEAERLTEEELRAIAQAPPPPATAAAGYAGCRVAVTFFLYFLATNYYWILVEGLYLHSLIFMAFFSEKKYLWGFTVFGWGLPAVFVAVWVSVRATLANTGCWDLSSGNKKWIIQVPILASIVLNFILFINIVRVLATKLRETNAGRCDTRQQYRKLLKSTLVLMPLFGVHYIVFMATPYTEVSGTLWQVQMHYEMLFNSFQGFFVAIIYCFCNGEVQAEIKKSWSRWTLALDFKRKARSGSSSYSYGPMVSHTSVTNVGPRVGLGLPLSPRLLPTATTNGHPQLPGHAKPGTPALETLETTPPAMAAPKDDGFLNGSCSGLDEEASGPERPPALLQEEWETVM
Format: cell-based

Compound | cAMP production activity (%)
Cc1cc(N(C)C(N)=O)cc(C)c1CC[S@TB4](=O)(=O)N1CCC2(CC1)N=C(c1ccc([Si](C)(C)C)cc1)NC2=O [Compound 1139, 1-(3,5-dimethyl-4-{2-[4-oxo-2-(4-trimethylsilanyl-phenyl)-1,3,8-triaza-spiro[4.5]dec-1-ene-8-sulfonyl]-ethyl}-phenyl)-1-methyl-urea] | 86%

Same assay, conditions: HKRK-B7 cells; compound at 1×10^−3 M; cAMP produced as percentage of that produced by hPTH(1-34) at 100 nM

Compound | cAMP production activity (%)
O=C1NC(CCCCCCCC(F)(F)C(F)(F)F)=NC12CCN(S(=O)(=O)/C=C/c1cccc3c1ccn3C[C@H](O)CO)CC2 [Compound 623, 8-{(E)-2-[1-((S)-2,3-Dihydroxy-propyl)-1H-indol-4-yl]-ethenesulfonyl}-2-(8,8,9,9,9-pentafluoro-nonyl)-1,3,8-triaza-spiro[4.5]dec-1-en-4-one] | 123%
Cc1cc(C(=O)N2CCC(O)(CF)CC2)cc(C)c1CCS(=O)(=O)N1CCC2(CC1)N=C(c1ccc3c(c1)OC(F)(F)O3)NC2=O [Compound 1275, 2-(2,2-difluoro-benzo[1,3]dioxol-5-yl)-8-{2-[4-(4-fluoromethyl-4-hydroxy-piperidine-1-carbonyl)-2,6-dimethyl-phenyl]-ethanesulfonyl}-1,3,8-triaza-spiro[4.5]dec-1-en-4-one] | 89%
Cc1cc(NCC2CNC(=O)O2)ccc1CCS(=O)(=O)N1CCC2(CC1)N=C(C1CCCCC1)NC2=O (centres unmarked) [Compound 281, 2-cyclohexyl-8-(2-{2-methyl-4-[(2-oxo-oxazolidin-5-ylmethyl)-amino]-phenyl}-ethanesulfonyl)-1,3,8-triaza-spiro[4.5]dec-1-en-4-one] | 92%
Cc1cc(OC2CCN(C(=O)OC(C)(C)C)CC2)ccc1/C=C/S(=O)(=O)N1CCC2(CC1)N=C(c1cccc(OC(F)(F)F)c1)NC2=O [Compound 602, 4-(3-methyl-4-{(E)-2-[4-oxo-2-(3-trifluoromethoxy-phenyl)-1,3,8-triaza-spiro[4.5]dec-1-ene-8-sulfonyl]-vinyl}-phenoxy)-piperidine-1-carboxylic acid tert-butyl ester] | 3.0%
Cc1cc(N2CCNCC2=O)ccc1CCS(=O)(=O)N1CCC2(CC1)N=C(C1CCC(C)CC1)NC2=O (centres unmarked) [Compound 870, 2-(4-methyl-cyclohexyl)-8-{2-[2-methyl-4-(2-oxo-piperazin-1-yl)-phenyl]-ethanesulfonyl}-1,3,8-triaza-spiro[4.5]dec-1-en-4-one] | 63%
CC(=O)Nc1ccc(/C=C/S(=O)(=O)N2CCC3(CC2)N=C(c2cccc(C(F)(F)F)c2)NC3=O)c(C)c1 [Compound 215, N-(3-Methyl-4-{(E)-2-[4-oxo-2-(3-trifluoromethyl-phenyl)-1,3,8-triaza-spiro[4.5]dec-1-ene-8-sulfonyl]-vinyl}-phenyl)-acetamide] | 81%
Cc1cc(N2C(=O)CNC2=O)ccc1CCS(=O)(=O)N1CCC2(CC1)N=C(C1CCC(C(F)(F)F)CC1)NC2=O (centres unmarked) [Compound 947, 3-(3-methyl-4-{2-[4-oxo-2-(4-trifluoromethyl-cyclohexyl)-1,3,8-triaza-spiro[4.5]dec-1-ene-8-sulfonyl]-ethyl}-phenyl)-imidazolidine-2,4-dione] | 89%
Cc1cc(C(=O)N(C)C)ccc1CCS(=O)(=O)N1CCC2(CC1)N=C(C#Cc1ccccc1)NC2=O [Compound 893, 3,N,N-trimethyl-4-[2-(4-oxo-2-phenylethynyl-1,3,8-triaza-spiro[4.5]dec-1-ene-8-sulfonyl)-ethyl]-benzamide] | 14%
Cc1ccccc1CCS(=O)(=O)N1CCC2(CC1)N=C(C1CCCCC1)NC2=O [Compound 277, 2-cyclohexyl-8-(2-o-tolyl-ethanesulfonyl)-1,3,8-triaza-spiro[4.5]dec-1-en-4-one] | 38%
Cc1cc(N(C)C(N)=O)cc(C)c1/C=C/[S@TB4](=O)(=O)N1CCC2(CC1)N=C(CCCCCCCCCCCCCC(=O)O)NC2=O [Compound 1109, 14-(8-{(E)-2-[2,6-dimethyl-4-(1-methyl-ureido)-phenyl]-ethenesulfonyl}-4-oxo-1,3,8-triaza-spiro[4.5]dec-1-en-2-yl)-tetradecanoic acid] | 29%
Nc1cccc(CCS(=O)(=O)N2CCC3(CC2)N=C(C2CCCCC2)NC3=O)c1 [Compound 166, 8-[2-(3-Amino-phenyl)-ethanesulfonyl]-2-cyclohexyl-1,3,8-triaza-spiro[4.5]dec-1-en-4-one] | 56%
COc1cccc(C(=O)N2CCCC(C3=NC4(CCN(S(=O)(=O)c5cccc(Cl)c5)CC4)C(=O)N3)C2)c1 (centres unmarked) [Compound 426, 8-(3-chloro-benzenesulfonyl)-2-[1-(3-methoxy-benzoyl)-piperidin-3-yl]-1,3,8-triaza-spiro[4.5]dec-1-en-4-one] | 16%
O=C1NC(C2CCCCC2)=NC12CCN(S(=O)(=O)c1cccs1)CC2 [Compound 56, 2-cyclohexyl-8-(thiophene-2-sulfonyl)-1,3,8-triaza-spiro[4.5]dec-1-en-4-one] | 55%
C=CCCCCC(=O)N(C)c1cc(C)c(CCS(=O)(=O)N2CCC3(CC2)N=C(CCCCC=C)NC3=O)c(C)c1 [Compound 1446, Hept-6-enoic acid {4-[2-(2-hex-5-enyl-4-oxo-1,3,8-triaza-spiro[4.5]dec-1-ene-8-sulfonyl)-ethyl]-3,5-dimethyl-phenyl}-methyl-amide] | 88%
CCCC(CCC)C1=NC2(CCN(S(=O)(=O)CCc3c(C)cc(N(C)C(N)=O)cc3C)CC2)C(=O)N1 [Compound 1041, 1-(3,5-dimethyl-4-{2-[4-oxo-2-(1-propyl-butyl)-1,3,8-triaza-spiro[4.5]dec-1-ene-8-sulfonyl]-ethyl}-phenyl)-1-methyl-urea] | 38%
Cc1cc(N2C(=O)NC(C)(C)C2=O)ccc1CCS(=O)(=O)N1CCC2(CC1)N=C(C1CCC(C)CC1)NC2=O (centres unmarked) [Compound 863, 5,5-dimethyl-3-(3-methyl-4-{2-[2-(4-methyl-cyclohexyl)-4-oxo-1,3,8-triaza-spiro[4.5]dec-1-ene-8-sulfonyl]-ethyl}-phenyl)-imidazolidine-2,4-dione] | 67%
Cc1cc(N(C)C(N)=O)cc(C)c1CCS(=O)(=O)N1CCC2(CC1)N=C(CCCCCC(F)(F)C(F)(F)F)NC2=O [Compound 1043, 1-(3,5-Dimethyl-4-{2-[4-oxo-2-(6,6,7,7,7-pentafluoro-heptyl)-1,3,8-triaza-spiro[4.5]dec-1-ene-8-sulfonyl]-ethyl}-phenyl)-1-methyl-urea] | 99%
O=C(CCc1ccccc1)N1CCCC(C2=NC3(CCN(S(=O)(=O)CCc4cccc5ccccc45)CC3)C(=O)N2)C1 (centres unmarked) [Compound 429, 8-(2-naphthalen-1-yl-ethanesulfonyl)-2-[1-(3-phenyl-propionyl)-piperidin-3-yl]-1,3,8-triaza-spiro[4.5]dec-1-en-4-one] | 38%
CCc1cc(N(C)C(N)=O)ccc1CCS(=O)(=O)N1CCC2(CC1)N=C(C1CCC(C)CC1)NC2=O (centres unmarked) [Compound 829, 1-(3-ethyl-4-{2-[2-(4-methyl-cyclohexyl)-4-oxo-1,3,8-triaza-spiro[4.5]dec-1-ene-8-sulfonyl]-ethyl}-phenyl)-1-methyl-urea] | 79%
Cc1cc(C(=O)N(C)C)ccc1CCS(=O)(=O)N1CCC2(CC1)N=C(COc1ccc(F)c(F)c1F)NC2=O [Compound 176, 3,N,N-trimethyl-4-{2-[4-oxo-2-(2,3,4-trifluoro-phenoxymethyl)-1,3,8-triaza-spiro[4.5]dec-1-ene-8-sulfonyl]-ethyl}-benzamide] | 74%
O=C1NC(C2CCCCC2)=NC12CCN(S(=O)(=O)/C=C/c1cccc3cccnc13)CC2 [Compound 633, 2-Cyclohexyl-8-((E)-2-quinolin-8-yl-ethenesulfonyl)-1,3,8-triaza-spiro[4.5]dec-1-en-4-one] | 37%
Cn1cc(-c2ccccc2CCS(=O)(=O)N2CCC3(CC2)N=C(C2CCCCC2)NC3=O)cn1 [Compound 340, 2-cyclohexyl-8-{2-[2-(1-methyl-1H-pyrazol-4-yl)-phenyl]-ethanesulfonyl}-1,3,8-triaza-spiro[4.5]dec-1-en-4-one] | 67%
CN[C@@H]1CCN(C(=O)c2cc(C)c(/C=C/S(=O)(=O)N3CCC4(CC3)N=C(c3cccc(OC(F)(F)F)c3)NC4=O)c(C)c2)C1 [Compound 398, 8-{(E)-2-[2,6-dimethyl-4-((R)-3-methylamino-pyrrolidine-1-carbonyl)-phenyl]-ethenesulfonyl}-2-(3-trifluoromethoxy-phenyl)-1,3,8-triaza-spiro[4.5]dec-1-en-4-one] | 52%
Cc1cc(N(C)C(N)=O)cc(C)c1CCS(=O)(=O)N1CCC2(CC1)N=C(C1CCC(C)CC1)N/C2=N/O (centres unmarked) [Compound 1371, 1-(4-{2-[4-[(E)-Hydroxyimino]-2-(4-methyl-cyclohexyl)-1,3,8-triaza-spiro[4.5]dec-1-ene-8-sulfonyl]-ethyl}-3,5-dimethyl-phenyl)-1-methyl-urea] | 84%
Cc1cc(N(C)C(N)=O)cc(C)c1/C=C/S(=O)(=O)N1CCC2(CC1)N=C(CCCCCCCCC(F)F)NC2=O [Compound 1321, 1-(4-{(E)-2-[2-(9,9-Difluoro-nonyl)-4-oxo-1,3,8-triaza-spiro[4.5]dec-1-ene-8-sulfonyl]-vinyl}-3,5-dimethyl-phenyl)-1-methyl-urea] | 63%
